Target: T1, human glucagon receptor (Homo sapiens, UniProt P47871)
T1 construct: expressed in transfected cells; cell membranes used
Assay: Glucagon Receptor Binding Assay (125I-glucagon, SPA, CHO cell membranes)
Conditions: 125I-Glucagon binding to membranes of CHO cells expressing cloned human glucagon receptor; more active isomer of indicated compounds
Method: Glucagon Receptor Binding Assay
A stable CHO (Chinese hamster ovary) cell line expressing cloned human glucagon receptor was maintained as described (Chicchi, et. al. J Biol Chem 272, 7765-9 (1997); Cascieri, et. al. J Biol Chem 274, 8694-7 (1999)). To determine antagonistic binding affinity of compounds, 0.001-0.003 mg of cell membranes from these cells were pre-incubated with 0.100 mg WGA-coated PVT SPA beads (Amersham) for 20 minutes at room temperature in 25 μL of a buffer containing 50 mM Tris-HCl (pH 7.5), 5 mM MgCl2, 2 mM EDTA, 0.1% BSA and 3% glycerol in Costar 384 well plates with clear bottoms (#3706). Next, 25 μL of ^125I-Glucagon (New England Nuclear, Mass.) (1×10^−14 mol per well) and either 1 μL solutions of test compounds or 0.001 mM unlabeled glucagon or DMSO were added and mixed. After 4-12 hours incubation at room temperature, the radioactivity bound to the cell membranes was determined in a radioactive emission detection counter (Wallac-Microbeta). Data were analyzed using the Data Analyzer software program of Merck & Co., Inc. The IC50 values were calculated using non-linear regression analysis assuming single-site competition.

T1 sequence (P47871 26-477): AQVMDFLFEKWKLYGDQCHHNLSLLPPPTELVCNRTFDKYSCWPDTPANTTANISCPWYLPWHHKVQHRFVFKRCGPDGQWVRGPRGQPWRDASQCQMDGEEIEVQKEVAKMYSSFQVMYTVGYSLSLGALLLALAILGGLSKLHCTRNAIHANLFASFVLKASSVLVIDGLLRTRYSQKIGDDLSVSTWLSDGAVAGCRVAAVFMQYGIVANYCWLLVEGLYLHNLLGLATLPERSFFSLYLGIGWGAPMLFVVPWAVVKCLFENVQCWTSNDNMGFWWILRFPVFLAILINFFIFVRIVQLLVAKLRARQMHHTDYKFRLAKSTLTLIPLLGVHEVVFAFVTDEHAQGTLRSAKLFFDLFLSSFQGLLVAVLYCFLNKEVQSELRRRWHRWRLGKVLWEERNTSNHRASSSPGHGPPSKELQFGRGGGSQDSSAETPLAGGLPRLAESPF

| SMILES | IC50 |
| --- | --- |
| CCCC(c1ccc(C(=O)NCCC(=O)O)cc1)C(c1ccc(Cl)cc1)c1ccc2cc(S(C)(=O)=O)ccc2c1 (stereo not drawn) [Example 37] | 2.9 nM |
| CCC[C@H](c1ccc(C(=O)NCCC(=O)O)cc1)C(c1ccc(Cl)cc1)c1ccc2cc(OC)ccc2c1 (stereo partly drawn) [Example 2, N-(4-{(1S)-1-[(4-chlorophenyl)(6-methoxy-2-naphthyl)methyl]butyl}benzoyl)-β-alanine] | 0.85 nM |
| CCCC(c1ccc(C(=O)NCCC(=O)O)cc1)C(c1ccc(Cl)cc1)c1ccc(OC)c2ccc(OC)cc12 (stereo not drawn) [Example 21] | 14.2 nM |
| CCCC(c1ccc(C(=O)NCCC(=O)O)cc1)C(c1ccc(C)cc1)c1ccc(F)c2ccccc12 (stereo not drawn) [Example 12] | 4.3 nM |
| CCC[C@H](c1ccc(C(=O)NCCS(=O)(=O)O)cc1)C(c1ccc(Cl)cc1)c1ccc(F)c2ccccc12 (stereo partly drawn) [Example 53] | 3.4 nM |
| CCC[C@H](c1ccc(C(=O)NCCC(=O)O)cc1)C(c1ccc(Cl)cc1)c1ccc2cc(C#N)ccc2c1 (stereo partly drawn) [Example 4] | 1.5 nM |
| CCC[C@H](c1ccc(C(=O)NCC(F)(F)C(=O)O)cc1)C(c1ccc(Cl)cc1)c1ccc(F)c2ccccc12 (stereo partly drawn) [Example 52] | 98 nM |
| CCC[C@H](c1ccc(C(=O)NCCC(=O)O)cc1)C(c1ccc(Cl)cc1)c1ccc2cc(OC(F)F)ccc2c1 (stereo partly drawn) [Example 3, N-[4-((1S)-1-{(4-chlorophenyl)[6-(difluoromethoxy)-2-naphthyl]methyl}butyl)benzoyl]-β-alanine] | 0.37 nM |
| CCC[C@H](c1ccc(C(=O)NC[C@H](O)C(=O)O)cc1)C(c1ccc(Cl)cc1)c1ccc2cc(OC)ccc2c1 (stereo partly drawn) [Example 7, (2S)-3-[(4-{(1S)-1-[(4-chlorophenyl)(6-methoxy-2-naphthyl)methyl]butyl}benzoyl)amino]-2-hydroxypropanoic acid] | 1.7 nM |
| CCCC(c1ccc(C(=O)NCCC(=O)O)cc1)C(c1ccc(Cl)cc1)c1ccc2cc(SC)ccc2c1 (stereo not drawn) [Example 36] | 0.83 nM |
| CCC[C@H](c1ccc(C(=O)NCc2nnn[nH]2)cc1)C(c1ccc(Cl)cc1)c1ccc(F)c2ccccc12 (stereo partly drawn) [Example 55] | 4 nM |
| CCC[C@H](c1ccc(C(=O)NCCC(=O)O)cc1)C(c1ccc(C#N)cc1)c1ccc(F)c2ccccc12 (stereo partly drawn) [Example 5, N-(4-{(1S)-1-[(4-cyanophenyl)(4-fluoro-1-naphthyl)methyl]butyl}benzoyl)-β-alanine] | 2.1 nM |
| CCC[C@H](c1ccc(C(=O)NCCC(=O)O)cc1)C(c1ccc(Cl)cc1)c1ccc(F)c2ccccc12 (stereo partly drawn) [Example 1, N-(4-{(1S)-1-[(4-chlorophenyl)(4-fluoro-1-naphthyl)methyl]butyl}benzoyl)-β-alanine] | 3.3 nM |
| CCC[C@H](c1ccc(C(=O)Nc2nnn[nH]2)cc1)C(c1ccc(Cl)cc1)c1ccc(F)c2ccccc12 (stereo partly drawn) [Example 56] | 7.6 nM |
| CCCC(c1ccc(C(=O)NCCC(=O)O)cc1)C(c1ccc(Cl)cc1)c1c(Cl)cc(OC)c2c(F)cccc12 (stereo not drawn) [Example 30] | 53 nM |
